Laboratory results published in patent US11549075B2, “Benzyl hemiformal-containing biodiesel mixtures” (LANXESS Deutschland GmbH, priority 2019, dated 2023).

Experiments:
[1] = Solubility of benzyl hemiformal in petrodiesel without biodiesel content; assay type: physicochemical; conditions: for Solubility of benzyl hemiformal in petrodiesel 100%: undiluted BHF stirred into petrodiesel
Experimental: 1) Benzyl Hemiformal—Solubility in Petrodiesel without Biodiesel Content
While stirring, BHF was mixed with petrodiesel in 0.01% steps. The following solubilities of BHF in petrodiesel were determined: […]

[2] = Solubility of benzyl hemiformal in B7 diesel fuel (petrodiesel with 7% by volume of biodiesel); assay type: physicochemical; conditions: for Solubility of benzyl hemiformal in B7 diesel fuel: undiluted BHF
Source text: 2) Benzyl Hemiformal—Solubility in B7 Diesel Fuel (Petrodiesel with 7% by Volume of Biodiesel)

- Solubility of benzyl hemiformal in petrodiesel 100% ([1]; 0.01 % BHF): dissolved to give clear solution
- Solubility of benzyl hemiformal in petrodiesel 100% ([1]; 0.02 % BHF): dissolved to give clear solution
- Solubility of benzyl hemiformal in petrodiesel 100% ([1]; 0.03 % BHF): undissolved fractions
- Solubility of benzyl hemiformal in petrodiesel 100% ([1]; 0.04 % BHF): undissolved fractions
- Solubility of BHF in petrodiesel (in words) ([1]; room temperature): only poorly soluble
- Amount of undiluted BHF that can be incorporated into petrodiesel to give a clear solution ([1]; undiluted BHF, petrodiesel without biodiesel): approx. 200 ppm
- Solubility of benzyl hemiformal in B7 diesel fuel ([2]; 0.01 % BHF): dissolved to give clear solution
- Solubility of benzyl hemiformal in B7 diesel fuel ([2]; 0.02 % BHF): dissolved to give clear solution
- Solubility of benzyl hemiformal in B7 diesel fuel ([2]; 0.03 % BHF): undissolved fractions
- Solubility of benzyl hemiformal in B7 diesel fuel ([2]; 0.04 % BHF): undissolved fractions
- Amount of undiluted BHF that can be incorporated into B7 diesel fuel to give a clear solution ([2]; B7 diesel fuel): approx. 200 ppm
Structure (SMILES): OCOCc1ccccc1 [benzyl hemiformal]
